From publication PMC6979384, “Characterization of the plant homeodomain (PHD) reader family for their histone tail interactions” (Epigenetics & Chromatin, 2020)

Legend:
Assay in all cases: Histone peptide microarray
Assay type in all cases: binding, human
[1] = tested on: PHRF1 (RP); conditions: GST-tagged PHRF1 (RP); sheet Array Heatmap; each array performed twice, total n = 4
How it was run: (§1)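 Each reader, produced as a GST fusion and purified, was tested at 0.5 μM on synthetic histone peptides (293 in total) carrying single or combinatorial marks. Intensities averaged over four replicates.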

[2] = tested on: TRIM66 (PB); conditions: GST-tagged TRIM66 (PB = PHD + Bromodomain); sheet Array Heatmap; each array performed twice, total n = 4
How it was run: as §1

[3] = tested on: PHF21A; conditions: GST-tagged PHF21A; sheet Array Heatmap; each array performed twice, total n = 4
How it was run: as §1

[4] = tested on: KDM5B (3); conditions: GST-tagged KDM5B (3); sheet Array Heatmap; each array performed twice, total n = 4
How it was run: as §1

[5] = tested on: DPF2 (PPC2W2); conditions: GST-tagged DPF2 (PPC2W2 = Dual PHD + C2W2-type Zn-finger); sheet Array Heatmap; each array performed twice, total n = 4
How it was run: as §1

[6] = tested on: BAZ2B; conditions: GST-tagged BAZ2B; sheet Array Heatmap; each array performed twice, total n = 4
How it was run: as §1

[7] = tested on: PHF2; conditions: GST-tagged PHF2; sheet Array Heatmap; each array performed twice, total n = 4
How it was run: as §1

[8] = tested on: MLL5; conditions: GST-tagged MLL5; sheet Array Heatmap; each array performed twice, total n = 4
How it was run: as §1

[9] = tested on: BPTF (PB); conditions: GST-tagged BPTF (PB = PHD + Bromodomain); sheet Array Heatmap; each array performed twice, total n = 4
How it was run: as §1

[10] = tested on: PHF13; conditions: GST-tagged PHF13; sheet Array Heatmap; each array performed twice, total n = 4
How it was run: as §1

[11] = tested on: PHF8; conditions: GST-tagged PHF8; sheet Array Heatmap; each array performed twice, total n = 4
How it was run: as §1

[12] = tested on: KDM4C (TTP); conditions: GST-tagged KDM4C (TTP = Tandem Tudor domain + PHD); sheet Array Heatmap; each array performed twice, total n = 4
How it was run: as §1

[13] = tested on: RAG2; conditions: GST-tagged RAG2; sheet Array Heatmap; each array performed twice, total n = 4
How it was run: as §1

[14] = tested on: CHD5 (PPCC); conditions: GST-tagged CHD5 (PPCC = Dual PHD + Dual Chromodomain); sheet Array Heatmap; each array performed twice, total n = 4
How it was run: as §1

[15] = tested on: KDM5A (3); conditions: GST-tagged KDM5A (3); sheet Array Heatmap; each array performed twice, total n = 4
How it was run: as §1

[16] = tested on: CHD4 (PPCC); conditions: GST-tagged CHD4 (PPCC = Dual PHD + Dual Chromodomain); sheet Array Heatmap; each array performed twice, total n = 4
How it was run: as §1

[17] = tested on: ING4; conditions: GST-tagged ING4; sheet Array Heatmap; each array performed twice, total n = 4
How it was run: as §1

[18] = tested on: CHD5 (PCC); conditions: GST-tagged CHD5 (PCC = PHD + Dual Chromodomain); sheet Array Heatmap; each array performed twice, total n = 4
How it was run: as §1

[19] = tested on: ING1; conditions: GST-tagged ING1; sheet Array Heatmap; each array performed twice, total n = 4
How it was run: as §1

[20] = tested on: AIRE (PP); conditions: GST-tagged AIRE (PP); sheet Array Heatmap; each array performed twice, total n = 4
How it was run: as §1

[21] = tested on: KDM5B (1); conditions: GST-tagged KDM5B (1); sheet Array Heatmap; each array performed twice, total n = 4
How it was run: as §1

[22] = tested on: TAF3; conditions: GST-tagged TAF3; sheet Array Heatmap; each array performed twice, total n = 4
How it was run: as §1

[23] = tested on: ING3; conditions: GST-tagged ING3; sheet Array Heatmap; each array performed twice, total n = 4
How it was run: as §1

[24] = tested on: KDM5A (1); conditions: GST-tagged KDM5A (1); sheet Array Heatmap; each array performed twice, total n = 4
How it was run: as §1

[25] = tested on: ING5; conditions: GST-tagged ING5; sheet Array Heatmap; each array performed twice, total n = 4
How it was run: as §1

[26] = tested on: SP140L; conditions: GST-tagged SP140L; sheet Array Heatmap; each array performed twice, total n = 4
How it was run: as §1

[27] = tested on: DIDO1; conditions: GST-tagged DIDO1; sheet Array Heatmap; each array performed twice, total n = 4
How it was run: as §1

[28] = tested on: MORC3 (CW); conditions: GST-tagged MORC3 (CW = CW-type Zn-finger); sheet Array Heatmap; each array performed twice, total n = 4
How it was run: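 GST-tagged PHD readers, 0.5 μM, probed on a microarray of 293 synthetic histone peptides carrying single or combinatorial PTMs (optimized Petell protocol). Signals are averaged over 4 replicates and expressed as relative binding.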

[29] = tested on: KDM7A; conditions: GST-tagged KDM7A; sheet Array Heatmap; each array performed twice, total n = 4
How it was run: as §1

[30] = tested on: ING2; conditions: GST-tagged ING2; sheet Array Heatmap; each array performed twice, total n = 4
How it was run: as §1

[31] = tested on: PHF23; conditions: GST-tagged PHF23; sheet Array Heatmap; each array performed twice, total n = 4
How it was run: as §1

Substance: H3K4ac + K9ac + K14ac + K18ac: H3 1-20
- Array Heatmap signal (histone peptide microarray) [1]: 0.4629
- Array Heatmap signal (histone peptide microarray) [2]: 0.6561
- Array Heatmap signal (histone peptide microarray) [3]: 0.4272
- Array Heatmap signal (histone peptide microarray) [4]: 0.4694
- Array Heatmap signal (histone peptide microarray) [5]: 0.6596
- Array Heatmap signal (histone peptide microarray) [6]: 0.563
- Array Heatmap signal (histone peptide microarray) [7]: 0.6121
- Array Heatmap signal (histone peptide microarray) [8]: 0.5536
- Array Heatmap signal (histone peptide microarray) [9]: 0.3593
- Array Heatmap signal (histone peptide microarray) [10]: 0.5706
- Array Heatmap signal (histone peptide microarray) [11]: 0.3207
- Array Heatmap signal (histone peptide microarray) [12]: 0.4292
- Array Heatmap signal (histone peptide microarray) [13]: 0.2412
- Array Heatmap signal (histone peptide microarray) [14]: 0.5084
- Array Heatmap signal (histone peptide microarray) [15]: 0.4281
- Array Heatmap signal (histone peptide microarray) [16]: 0.5829
- Array Heatmap signal (histone peptide microarray) [17]: 0.4318
- Array Heatmap signal (histone peptide microarray) [18]: 0.7123
- Array Heatmap signal (histone peptide microarray) [19]: 0.5598
- Array Heatmap signal (histone peptide microarray) [20]: 0.3782
- Array Heatmap signal (histone peptide microarray) [21]: 0.573
- Array Heatmap signal (histone peptide microarray) [22]: 0.2581
- Array Heatmap signal (histone peptide microarray) [23]: 0.4699
- Array Heatmap signal (histone peptide microarray) [24]: 0.4231
- Array Heatmap signal (histone peptide microarray) [25]: 0.3295
- Array Heatmap signal (histone peptide microarray) [26]: 0.3096
- Array Heatmap signal (histone peptide microarray) [27]: 0.7084
- Array Heatmap signal (histone peptide microarray) [28]: 0.3581
- Array Heatmap signal (histone peptide microarray) [29]: 0.3021
- Array Heatmap signal (histone peptide microarray) [30]: 0.6105
- Array Heatmap signal (histone peptide microarray) [31]: 0.5552

Substance: H3K4ac + K9ac + S10p + K14ac + K18ac: H3 1-20
- Array Heatmap signal (histone peptide microarray) [1]: 0.429
- Array Heatmap signal (histone peptide microarray) [2]: 0.6786
- Array Heatmap signal (histone peptide microarray) [3]: 0.4919
- Array Heatmap signal (histone peptide microarray) [4]: 0.4819
- Array Heatmap signal (histone peptide microarray) [5]: 0.6938
- Array Heatmap signal (histone peptide microarray) [6]: 0.5889
- Array Heatmap signal (histone peptide microarray) [7]: 0.4731
- Array Heatmap signal (histone peptide microarray) [8]: 0.555
- Array Heatmap signal (histone peptide microarray) [9]: 0.3689
- Array Heatmap signal (histone peptide microarray) [10]: 0.6482
- Array Heatmap signal (histone peptide microarray) [11]: 0.3899
- Array Heatmap signal (histone peptide microarray) [12]: 0.5421
- Array Heatmap signal (histone peptide microarray) [13]: 0.2541
- Array Heatmap signal (histone peptide microarray) [14]: 0.5941
- Array Heatmap signal (histone peptide microarray) [15]: 0.4188
- Array Heatmap signal (histone peptide microarray) [16]: 0.5822
- Array Heatmap signal (histone peptide microarray) [17]: 0.4935
- Array Heatmap signal (histone peptide microarray) [18]: 0.8446
- Array Heatmap signal (histone peptide microarray) [19]: 0.5313
- Array Heatmap signal (histone peptide microarray) [20]: 0.5295
- Array Heatmap signal (histone peptide microarray) [21]: 0.6478
- Array Heatmap signal (histone peptide microarray) [22]: 0.2701
- Array Heatmap signal (histone peptide microarray) [23]: 0.4823
- Array Heatmap signal (histone peptide microarray) [24]: 0.5046
- Array Heatmap signal (histone peptide microarray) [25]: 0.3888
- Array Heatmap signal (histone peptide microarray) [26]: 0.3597
- Array Heatmap signal (histone peptide microarray) [27]: 0.6753
- Array Heatmap signal (histone peptide microarray) [28]: 0.3767
- Array Heatmap signal (histone peptide microarray) [29]: 0.4698
- Array Heatmap signal (histone peptide microarray) [30]: 0.5779
- Array Heatmap signal (histone peptide microarray) [31]: 0.5331

Substance: H3K4ac + K9ac: H3 1-20
- Array Heatmap signal (histone peptide microarray) [1]: 0.6615
- Array Heatmap signal (histone peptide microarray) [2]: 0.6641
- Array Heatmap signal (histone peptide microarray) [3]: 0.4614
- Array Heatmap signal (histone peptide microarray) [4]: 0.6207
- Array Heatmap signal (histone peptide microarray) [5]: 0.6975
- Array Heatmap signal (histone peptide microarray) [6]: 0.5296
- Array Heatmap signal (histone peptide microarray) [7]: 0.54
- Array Heatmap signal (histone peptide microarray) [8]: 0.5339
- Array Heatmap signal (histone peptide microarray) [9]: 0.3822
- Array Heatmap signal (histone peptide microarray) [10]: 0.5976
- Array Heatmap signal (histone peptide microarray) [11]: 0.3733
- Array Heatmap signal (histone peptide microarray) [12]: 0.5223
- Array Heatmap signal (histone peptide microarray) [13]: 0.2758
- Array Heatmap signal (histone peptide microarray) [14]: 0.5625
- Array Heatmap signal (histone peptide microarray) [15]: 0.5679
- Array Heatmap signal (histone peptide microarray) [16]: 0.558
- Array Heatmap signal (histone peptide microarray) [17]: 0.4565
- Array Heatmap signal (histone peptide microarray) [18]: 0.8893
- Array Heatmap signal (histone peptide microarray) [19]: 0.5202
- Array Heatmap signal (histone peptide microarray) [20]: 0.5254
- Array Heatmap signal (histone peptide microarray) [21]: 0.6807
- Array Heatmap signal (histone peptide microarray) [22]: 0.3083
- Array Heatmap signal (histone peptide microarray) [23]: 0.4596
- Array Heatmap signal (histone peptide microarray) [24]: 0.4969
- Array Heatmap signal (histone peptide microarray) [25]: 0.3535
- Array Heatmap signal (histone peptide microarray) [26]: 0.3499
- Array Heatmap signal (histone peptide microarray) [27]: 0.6345
- Array Heatmap signal (histone peptide microarray) [28]: 0.3754
- Array Heatmap signal (histone peptide microarray) [29]: 0.4244
- Array Heatmap signal (histone peptide microarray) [30]: 0.6174
- Array Heatmap signal (histone peptide microarray) [31]: 0.5225
